Activity calls are given as the source filed them. The calls are words filed in the database; no cut-off is given here.
Tests used:
[1] = biological target: T1, Toll-like receptor 8 (Homo sapiens) (UniProt Q9NR97); test: Agonist activity at human TLR8 expressed in HEK293 cells at 5 to 1000 ng/ml by QUANTI-blue SEAP reporter gene assay; format: cell-based
T1 sequence (whole entry): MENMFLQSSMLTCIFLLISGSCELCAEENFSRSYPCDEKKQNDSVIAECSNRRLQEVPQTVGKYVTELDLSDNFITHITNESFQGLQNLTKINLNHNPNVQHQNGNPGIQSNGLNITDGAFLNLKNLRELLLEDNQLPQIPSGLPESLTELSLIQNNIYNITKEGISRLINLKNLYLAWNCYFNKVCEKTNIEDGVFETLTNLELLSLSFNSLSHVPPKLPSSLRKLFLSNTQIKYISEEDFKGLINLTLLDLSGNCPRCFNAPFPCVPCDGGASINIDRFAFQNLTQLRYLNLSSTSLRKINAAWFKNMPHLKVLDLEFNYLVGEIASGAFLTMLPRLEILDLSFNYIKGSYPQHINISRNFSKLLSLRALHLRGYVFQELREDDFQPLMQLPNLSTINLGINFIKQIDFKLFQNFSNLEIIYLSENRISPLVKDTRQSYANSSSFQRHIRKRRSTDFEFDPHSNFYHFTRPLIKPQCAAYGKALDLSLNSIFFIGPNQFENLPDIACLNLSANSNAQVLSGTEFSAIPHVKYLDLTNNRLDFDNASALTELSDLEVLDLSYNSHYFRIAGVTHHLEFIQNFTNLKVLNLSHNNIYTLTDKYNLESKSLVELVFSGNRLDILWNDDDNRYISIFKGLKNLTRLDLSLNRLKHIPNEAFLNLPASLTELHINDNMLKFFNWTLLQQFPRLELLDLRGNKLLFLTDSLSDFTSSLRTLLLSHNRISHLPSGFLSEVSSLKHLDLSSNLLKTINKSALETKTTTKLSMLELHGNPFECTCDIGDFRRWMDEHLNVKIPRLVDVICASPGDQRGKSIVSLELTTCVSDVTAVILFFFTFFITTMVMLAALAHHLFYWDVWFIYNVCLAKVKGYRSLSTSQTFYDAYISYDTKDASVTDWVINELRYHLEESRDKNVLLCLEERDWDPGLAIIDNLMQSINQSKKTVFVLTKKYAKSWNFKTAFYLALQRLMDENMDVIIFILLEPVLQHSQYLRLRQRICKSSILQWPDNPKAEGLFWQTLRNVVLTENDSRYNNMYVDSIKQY

[2] = biological target: T2, Toll-like receptor 9 (Homo sapiens) (UniProt Q9NR96); test: Agonist activity at human TLR9 expressed in HEK293 cells at 5 to 1000 ng/ml by QUANTI-blue SEAP reporter gene assay; format: cell-based
T2 sequence (whole entry): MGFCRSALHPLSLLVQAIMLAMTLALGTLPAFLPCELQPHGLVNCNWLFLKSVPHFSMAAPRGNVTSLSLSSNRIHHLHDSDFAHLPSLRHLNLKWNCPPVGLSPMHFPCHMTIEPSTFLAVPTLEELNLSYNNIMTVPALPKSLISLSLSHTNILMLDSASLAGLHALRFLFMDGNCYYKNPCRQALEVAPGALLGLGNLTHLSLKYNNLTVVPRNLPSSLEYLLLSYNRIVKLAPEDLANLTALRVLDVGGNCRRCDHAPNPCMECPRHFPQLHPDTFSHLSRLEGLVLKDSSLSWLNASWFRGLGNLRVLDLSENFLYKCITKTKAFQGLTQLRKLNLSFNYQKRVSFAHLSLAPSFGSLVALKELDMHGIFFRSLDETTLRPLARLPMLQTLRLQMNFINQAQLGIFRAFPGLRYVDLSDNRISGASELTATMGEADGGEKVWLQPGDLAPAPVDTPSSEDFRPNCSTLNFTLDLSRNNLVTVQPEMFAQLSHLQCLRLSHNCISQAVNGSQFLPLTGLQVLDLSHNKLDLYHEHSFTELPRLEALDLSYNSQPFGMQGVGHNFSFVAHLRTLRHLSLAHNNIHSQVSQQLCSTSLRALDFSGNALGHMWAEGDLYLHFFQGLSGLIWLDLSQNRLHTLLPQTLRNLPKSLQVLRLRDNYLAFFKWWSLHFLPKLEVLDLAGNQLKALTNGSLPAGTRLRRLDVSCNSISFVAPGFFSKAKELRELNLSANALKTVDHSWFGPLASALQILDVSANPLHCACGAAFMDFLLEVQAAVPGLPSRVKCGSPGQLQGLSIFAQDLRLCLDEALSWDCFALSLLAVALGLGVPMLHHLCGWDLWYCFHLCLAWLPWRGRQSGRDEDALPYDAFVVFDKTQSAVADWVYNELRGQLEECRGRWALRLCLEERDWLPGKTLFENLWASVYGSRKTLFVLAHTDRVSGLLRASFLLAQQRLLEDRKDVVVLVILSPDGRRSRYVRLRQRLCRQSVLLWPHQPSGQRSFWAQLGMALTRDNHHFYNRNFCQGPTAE

HEK293 = test: Induction of SEAP reporter gene expression in TLR-deficient HEK293 cells at 5 to 1000 ng/ml; format: functional, cell-based; details: Homo sapiens
[3] = biological target: T3, Toll-like receptor 7 (Homo sapiens) (UniProt Q9NYK1); test: Agonist activity at human TLR7 expressed in HEK293 cells at <= 500 ng/ml by QUANTI-blue SEAP reporter gene assay; format: cell-based
T3 sequence (whole entry): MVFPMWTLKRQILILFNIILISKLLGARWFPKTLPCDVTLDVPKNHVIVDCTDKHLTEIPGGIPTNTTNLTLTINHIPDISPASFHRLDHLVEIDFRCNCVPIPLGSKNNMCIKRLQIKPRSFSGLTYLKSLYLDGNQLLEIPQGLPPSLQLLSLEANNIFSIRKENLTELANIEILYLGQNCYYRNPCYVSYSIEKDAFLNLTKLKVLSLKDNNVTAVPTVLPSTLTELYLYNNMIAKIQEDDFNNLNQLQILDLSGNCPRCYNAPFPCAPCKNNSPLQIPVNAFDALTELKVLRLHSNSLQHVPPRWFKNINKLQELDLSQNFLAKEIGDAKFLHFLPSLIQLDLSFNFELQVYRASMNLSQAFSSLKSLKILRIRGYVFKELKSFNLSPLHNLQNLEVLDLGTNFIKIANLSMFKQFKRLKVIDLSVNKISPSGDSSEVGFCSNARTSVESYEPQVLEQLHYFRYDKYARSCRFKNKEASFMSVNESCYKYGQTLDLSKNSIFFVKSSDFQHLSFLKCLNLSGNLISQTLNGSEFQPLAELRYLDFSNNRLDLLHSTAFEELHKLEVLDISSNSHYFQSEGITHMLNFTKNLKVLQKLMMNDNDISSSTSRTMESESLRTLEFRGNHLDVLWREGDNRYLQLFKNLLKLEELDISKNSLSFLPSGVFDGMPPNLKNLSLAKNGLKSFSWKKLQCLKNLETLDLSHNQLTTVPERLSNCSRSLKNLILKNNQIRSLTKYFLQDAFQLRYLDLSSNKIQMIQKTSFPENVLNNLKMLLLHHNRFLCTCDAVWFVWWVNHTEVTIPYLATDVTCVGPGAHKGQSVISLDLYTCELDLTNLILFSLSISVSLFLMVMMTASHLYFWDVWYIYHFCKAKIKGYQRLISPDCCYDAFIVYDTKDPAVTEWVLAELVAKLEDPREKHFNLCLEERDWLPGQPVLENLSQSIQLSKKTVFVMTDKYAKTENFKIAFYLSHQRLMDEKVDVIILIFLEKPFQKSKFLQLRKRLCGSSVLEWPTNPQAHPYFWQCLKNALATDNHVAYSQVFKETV

T-cell = test: Immunostimulatory activity in CFSE-labeled human T cells assessed as TLR7 agonist-induced cell proliferation at 2 to 200 nM after 6 days by FACS analysis; format: functional, cell-based
B cell = test: Immunostimulatory activity in CFSE-labeled human B cells assessed as TLR7 agonist-induced cell proliferation after 6 days by FACS analysis; format: functional, cell-based; details: 144 h
Homo sapiens = species on record: Homo sapiens; test: Immunostimulatory activity in CFSE-labeled human NK cells assessed as TLR7 agonist-induced cell proliferation at 2 to 200 nM after 6 days by FACS analysis; format: functional

Structure (SMILES)	Activity [1]	Activity [2]	Activity (HEK293)	Activity [3]	Activity (T-cell)	EC50 (B cell)	Activity (Homo sapiens)
CCCCOc1nc(N)c2nc(O)n(Cc3ccc(C(=O)NCCC(=O)N4Cc5ccccc5C#Cc5ccccc54)cc3)c2n1	inactive	inactive	inactive	Active			
CCCCOc1nc(N)c2nc(O)n(Cc3ccc(C(=O)NCc4ccc(OC)cc4)cc3)c2n1	inactive	inactive	inactive	Active	inactive	60.5 nM	inactive
CCCCOc1nc(N)c2nc(O)n(Cc3ccc(C(=O)NCCNC(=O)C4CCC(CN5C(=O)C=CC5=O)CC4)cc3)c2n1 (centres undefined)	inactive	inactive	inactive	Active			
CCCCOc1nc(N)c2nc(O)n(Cc3ccc(C(=O)NCCOCCOCCNC(=O)OC(C)(C)C)cc3)c2n1	inactive	inactive	inactive	Active	inactive	46.4 nM	inactive
CCCCOc1nc(N)c2nc(NC)n(Cc3ccccc3)c2n1	inactive	inactive	inactive	Active	inactive	969 nM	inactive

— ChEMBL document CHEMBL4425188, “Synthesis and immunostimulatory activity of substituted TLR7 agonists” (Bioorg Med Chem Lett, 2016)
